The values that follow come from US20110294861A1, “METHOD OF TREATMENT OF HEREDITARY HEMOCHROMATOSIS” (NOVARTIS AG, priority 2006, published 2011).

Data set [1] is described as follows: Plasma half life within the human body. The class given is in vivo.
Data set [2] can be described thus: Exposure of Compound I in mice compared with human studies. To be noted: mice versus human studies. The class given is in vivo.
The next data set relates to HJV−/− mice. The experiment in a line: Iron overload in a murine model of juvenile hemochromatosis (organ iron by ICP-OES). The data set is classed as in vivo. The protocol:
Compound I, a novel tridentate oral iron chelator, is effective in the treatment of patients with transfusional iron overload and it has not been investigated in primary iron overload. We sought to examine spontaneous iron loading and the effect of Compound I upon the removal of iron in HJV−/− mice with iron overload.
Methods: Inductively-Coupled Plasma Optical Emission Spectrometry (ICP-OES, measurement of elemental iron) determinations in liver, heart, spleen and pancreas were performed at week 8 (study start), 14, 20 and 28 in HJV−/− and wild type (wt) mice (n=6-8), subsequent to MRI measurements in heart and liver. Starting at week 20 three groups of HJV−/− animals received daily 0 (vehicle), 30 or 100 mg/kg Compound I, control wt-mice remained untreated. Iron loading was observed up to 28 weeks (including vehicle group) and the effects of Compound I were assessed by comparing the 28-week groups. MRI R2* measurements were performed using a 4.7T MR imager. For the myocardial and hepatic R2* assessments single slice, ECG gated gradient echo images and single slice transversal gradient echo images were acquired, respectively.

For data set [3] the following is noted: subcutaneous, 3 patients with HH; compared with weekly phlebotomy, e.g. 500 ml; cited from earlier work.
For data set [4] the following is noted: in vivo; cited from earlier work.
[5] abbreviates: 100 mg/kg daily, week 20 to 28, HJV−/− mice, ICP-OES.
Setting [6] is: hemojuvelin knock out mouse, within 8 weeks of treatment (conclusion).

A word on the half-life: it is the time needed for the level to fall by half in the phase considered. A high value points to slow loss. In turn, `O=C(O)c1ccc(-n2nc(-c3ccccc3O)nc2-c2ccccc2O)cc1` [Compound I, 4-[3,5-bis(2-hydroxyphenyl)-[1,2,4]triazol-1-yl]benzoic acid] displayed a half-life in data set [1] of 8 to 16 h. The “lower exposure in mice” value in data set [2] is on record as 6-9 times. For the same compound, in the data set with HJV−/− mice (30 mg/kg daily, HJV−/− mice), the “effects on organ iron load” value is given as “modest”. Also, in the data set with HJV−/− mice (100 mg/kg daily, HJV−/− mice), the “effects on organ iron load in liver and heart” value is “quite pronounced”; the pancreas iron entry was “clear trend to lower levels”. In addition, in the data set with HJV−/− mice (setting [5]), the “heart iron reduced as compared to the (HJV−/−)-vehicle treated group” value is listed as 41% and the “liver iron reduced as compared to the (HJV−/−)-vehicle treated group” value was found to be 63%. In the data set with HJV−/− mice (setting [6]), the “liver and heart iron” value is listed as “significantly reduced”; the pancreatic iron load result is given as “trend to improvement”.
As for `CC(=O)N(O)CCCCCNC(=O)CCC(=O)N(O)CCCCCNC(=O)CCC(=O)N(O)CCCCCN` [DFO, desferrioxamine], the “effectiveness of treatment of iron overload” value in data set [3] is on record as “as effective as weekly phlebotomy”. Also, the “half life within the bloodstream” value in data set [4] is reported as “short”.
